Source: patent US20200237909A1, “METHODS OF TREATING OR PREVENTING BREAST CANCER METASTASES USING ANTIBODIES TO JAGGED1 AND CHEMOTHERAPEUTIC AGENTS” (The Trustees of Princeton University, priority 2017, published 2020)

Tests used:
[1] = test system: Jagged1 expression; assay: Jagged1 mRNA expression in cell lines after chemotherapy agents; type: cell-based; details: 48 hr; for Jagged1 expression: MC3T3-E1 pre-osteoblast cells and MSCs, 25 nM paclitaxel or 10 μM cisplatin; for Jagged1 induction: endothelial cells, RAW 264.7 pre-osteoclasts, SCP28 and SUM1315-M1B1 tumor cells
Protocol: FIG. 5. Chemotherapy induces Jagged1 expression in osteoblast lineage cells. (A) Jagged1 mRNA expression in osteoblast MC3T3-E1-Clone #4 osteoblast cells and mesenchymal stem cells (MSC), HPMECL endothelial cells (endo), RAW264.7 pre-osteoclast cells, and SCP28 and SUM1315-M1B1 breast tumor cells 48 hr post-treatment with 25 nM paclitaxel or 10 μM cisplatin. (B) Athymic nude mice were i.v. injected with PBS or cisplatin and euthanized 48 hr later. Hind limb bones were collected for IF staining against Alp (green) and Jagged1 (red). Nuclei were counter-stained with DAPI (blue). (C-E) Athymic nude mice were treated with either PBS or cisplatin on Day 0. One day after the pre-treatment, MCF7 (C), SUM1315-M1B1 (D) or SCP28 (E) cells were delivered locally to the hind limbs of these mice by IIA injection. BLI imaging and quantification of BLI signal at Day 4. (F) Mice from experiment in E were euthanized after BLI imaging at Day 4. Hind limbs were fixed and processed for IF imaging of GFP-expressing tumor cells (green) and ALP positive osteoblasts (red). Size bar: 80 μm. In A: n=3. *p<0.05 by Student's t-test. In C-E: n=5. *p<0.05 by Student's t-test. #: statistically insignificant.
The possibility that chemotherapy agents may induce Jagged1 expression in either tumor cells or in the bone stromal cells was considered. […] Key stromal cell types in bone metastasis include osteoclasts, osteoblasts and their progenitors (such as mesenchymal stem cells (MSCs)), and endothelial cells. Whether Jagged1 could be induced in these cells and various breast cancer cell lines upon treatment of two different chemotherapy agents, paclitaxel and cisplatin, which are commonly used in the treatment of breast cancer, was tested.
Total RNAs were isolated from cells using RNeasy kit (Qiagen) following manufacturer's instructions. RNAs were reverse transcribed into cDNAs by using Superscript III reverse transcription kit (Invitrogen). Real-time RT-PCR was performed on ABI 7900 96 HT series PCR machine (Applied Biosystem) using SYBR Green Supermix (Bio-Rad Laboratories). The gene-specific primer sets were used at a final concentration of 0.5 μM. All real-time RT-PCR assays were performed in duplicate in at least two independent experiments. Relative expression values of each target gene were normalized to GAPDH mRNA level.

[2] = test system: Notch downstream genes (human HES2, HEY1, HEY2); assay: Notch downstream gene expression in tumor cells co-cultured with MSC after chemotherapy; type: cell-based; details: co-culture tumor cells after chemotherapy
[3] = test system: SUM1315-M1B1 cells; assay: SUM1315-M1B1 bone metastasis model; type: in vivo, athymic nude mice; details: Week 4
Description: FIG. 9. 15D11 synergizes with chemotherapy to inhibit bone metastasis in the SUM1315-M1B1 model. (A) Western blot analysis of Jagged1 protein expression level in SUM1315-M1B1, SPC2, SCP28-Vector, and SCP28-Jagged1 cells. β-actin was used as loading control. (B) Schematic representation of the experimental procedure. In brief, SUM1315-M1B1 cells were IC injected into 4-6 weeks female athymic nude mice to generate bone metastases. One week later, mice were randomized into four groups and treated with respective therapeutic agents. Bone metastasis progression was monitored by weekly BLI imaging until the experimental endpoint (4 weeks after injection). (C) Representative BLI and X-ray images of mice in Week 4 right before euthanizing the mice. (D) Quantification of bone metastasis burden each week based on BLI imaging from the experiment. […] (E) Representative H&E staining and TRAP staining images of hind limb bones from experiment in A were shown. Scale bar: 100 μm. […] AU: arbitrary unit. n=10, **p<0.01 by Student's t-test. (G) Quantification of the number of TRAP-positive osteoclasts per field. n=5, **p<0.01 by Student's t-test.
To validate whether the observed synergy of combined treatment can also be observed in other models of bone metastasis beyond the MDA-MB-231 series, the bone metastatic SUM1315-M1B1 cell line was used. […]

Compound | Jagged1 expression [1] | Jagged1 induction [1] | Notch downstream genes HES2, HEY1, HEY2 [2] | bone metastasis burden (BLI signal) [3]
N.N.[Cl][Pt][Cl] [cisplatin] | significantly increased | no significant induction | significantly upregulated | –
CC(=O)O[C@H]1C(=O)[C@@]2(C)[C@H]([C@H](OC(=O)c3ccccc3)[C@]3(O)C[C@H](OC(=O)[C@H](O)[C@@H](NC(=O)c4ccccc4)c4ccccc4)C(C)=C1C3(C)C)[C@]1(OC(C)=O)CO[C@@H]1C[C@@H]2O [paclitaxel] | significantly increased | no significant induction | – | minor reduction of BLI signal
